Source: patent US20050002552A1, “Automated in vitro cellular imaging assays for micronuclei and other target objects” (Pfizer Inc, priority 2003, published 2005)
Like-named read-outs stand apart in the source and are kept apart here.

Key:
[1] = test system: Chinese hamster ovary cells; assay: In vitro micronucleus assay, non-Cytochalasin B protocol (mononucleated cells); conditions: cut-off double the DMSO value (micronuclei frequencies of 1.2% and higher are positive); manual or automated scoring; per run
Method: Accordingly, the method of this invention was also used to determine micronuclei frequency in non-cytokinesis-blocked cell samples (i.e., cell samples that were not treated with Cytochalasin B or the like) and, therefore, which were mononucleated.
In the second set of experiments, Chinese hamster ovary cells were used and the only difference in treatment and image acquisition protocol between runs in this set was the stimulus (i.e., chemical agent) with which the cells were incubated. Cytochalasin B was not used is this set of experiments (and, thus, the cells remained virtually all mononucleated throughout the experiment).

[2] = test system: Chinese hamster ovary cells; conditions: cut-off two to three times the negative control value (1.1%); both wells, automated and manual scoring
From the text: A small quantity of a discovery drug candidate will be added to each well (the amount will usually be in the range of from 0 micrograms to about 500 micrograms and often in the range of from 0 micrograms to about 100 micrograms), desirably in a carrier medium containing DMSO (dimethyl sulfoxide), ethanol, methanol, acetonitrile, and/or water.
A mixture such as one containing amino acids (e.g., L-glutamine), serum (e.g., 5% fetal bovine serum), and glucose will be added to the wells to provide an aqueous growth medium for the cells. […] The presence of binucleated cells in the microwell at the end of the process is proof that nuclear division occurred in the presence of the discovery drug candidate.
After the cells become attached to the plate bottom, a chemical stimulus (agent) such as a discovery drug candidate can be added to each well. […]
If more than one micronuclei is found in a single cell, the cell is likely undergoing nuclear fragmentation as a result of apoptosis (programmed cell-death) and, accordingly, should be discarded from the final analysis. The micronuclei rate or frequency can be calculated as the number of micronucleated cells divided by the total number of nuclear division in a sample (the rate or frequency may be converted to a percentage by multiplying the rate or frequency by 100).

[3] = test system: Chinese hamster ovary cells; conditions: stated as known; cited from earlier work

In the case of `CO[C@@]12[C@H](COC(N)=O)C3=C(C(=O)C(C)=C(N)C3=O)N1C[C@@H]1N[C@@H]12` [Mitomycin C], the “Response call (clastogenic/aneugenic) against negative control” value [1] is given as “positive”, the “Response call (clastogenic/aneugenic) against negative control” value [2] is given as “positive response” and the “Known aneugenicity/clastogenicity (positive control)” value [3] is given as “aneugenic/clastogenic”.
